Measurements taken from patent publication US20260355196A1, “INHIBITORS AND DEGRADERS OF PIP4K PROTEIN” (Larkspur Biosciences, Inc., priority 2023, published 2026).

biological target: T1, PIP4K2C (Homo sapiens, UniProt Q8TBX8); assay: HiBiT PIP4K2C degradation assay in MOLT-4 cells (endogenous PIP4K2C C-terminally tagged with HiBiT); assay type: cell-based; parameters: untagged in primary human PBMCs and monocyte-derived dendritic cells; conditions: 24 hours incubation, MOLT-4, top concentration 10 micromolar; read-out: HiBIT-degradation MOLT4 PIP4k2C 24 hours DC50
T1 sequence (Q8TBX8 1-421): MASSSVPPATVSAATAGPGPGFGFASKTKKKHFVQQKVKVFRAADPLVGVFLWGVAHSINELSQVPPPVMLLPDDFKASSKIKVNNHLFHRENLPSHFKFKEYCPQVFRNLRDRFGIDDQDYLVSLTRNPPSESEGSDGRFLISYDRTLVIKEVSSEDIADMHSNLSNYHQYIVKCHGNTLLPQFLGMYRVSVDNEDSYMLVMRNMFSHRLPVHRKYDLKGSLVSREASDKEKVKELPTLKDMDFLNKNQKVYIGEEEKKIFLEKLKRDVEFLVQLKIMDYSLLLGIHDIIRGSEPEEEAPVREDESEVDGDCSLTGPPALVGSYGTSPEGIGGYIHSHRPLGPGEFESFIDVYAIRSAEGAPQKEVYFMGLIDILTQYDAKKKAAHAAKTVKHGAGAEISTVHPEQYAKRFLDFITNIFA
Text: Example B-2: HiBiT PIP4K2C degradation assay
Materials: MOLT-4, a human T lymphoblast cell line (see https://www.atcc.org/products/crl-1582, herein incorporated by reference in its entirety), was genetically engineered using CRISPR-Cas9 by Synthego Corporation (Redwood City, CA) to C-terminally tag endogenous PIP4K2C with HiBiT peptide. Following clonal selection, genotype was confirmed by Sanger sequencing. MO LT-4 were maintained using RPMI-1640 medium from Gibco (Grand Island, NY, catalog number 11875-085) supplemented with 10% fetal bovine serum (FBS) from VWR (Philadelphia, PA, catalog number 97068-085). For HiBiT assays the cells were resuspended in RPMI-1640 medium without phenol read from Gibco (Grand Island, NY, catalog number 11835-030) supplemented with 10% FBS. Nano-Glo® HiBiT Lytic Assay System was purchased from Promega (Madison, WI, Catalog number N3030). Cell culture flasks and 384-well microplates were purchased from Corning (Glendale, AZ).
To study PIP4K2C degradation, 384-well plates were plated with a 10-point dose response curve, 3-fold dilution, in duplicate with a top starting concentration of 10 micromolar. Subsequently 22,500 cells were added to each well and incubated at 37 C in 5% C02 for 24 hours or 6 hours. At the end of the incubation time, cells were treated with the Nano-Glo® HiBiT Lytic Detection System following the manufacturer's instructions. Luminescence was measured with a PHERAstar FSX plate reader (BMG Labtech, Cary, NC). The Levenberg-Marquardt algorithm was used to fit a Hill equation to dose-response data to calculate DC50 values (see Table 6).

| SMILES | DC50 [nM] |
| --- | --- |
| O=C1CCC(N2Cc3cc(C4CCN(C(=O)C5CCN(C(=O)[C@H]6CCC[C@@H](Nc7ncc(Cl)c(-c8cccc(-c9ccccc9)c8)n7)C6)CC5)CC4)ccc3C2=O)C(=O)N1 (relative stereo) [Compound 60, cis-3-(5-(1-(1-(3-((4-([1,1′-biphenyl]-3-yl)-5-chloropyrimidin-2-yl)amino)cyclohexane-1-carbonyl)piperidine-4-carbonyl)piperidin-4-yl)-1-oxoisoindolin-2-yl)piperidine-2,6-dione] | < 500 |
| O=C1CCC(N2Cc3cc(C4CCN(CCN5CCN(C(=O)[C@H]6CCC[C@@H](Nc7ncc(Cl)c(-c8cccc(-c9ccccc9)c8)n7)C6)CC5)CC4)ccc3C2=O)C(=O)N1 (relative stereo) [Compound 61, cis-3-(5-(1-(2-(4-(3-((4-([1,1′-biphenyl]-3-yl)-5-chloropyrimidin-2-yl)amino)cyclohexane-1-carbonyl)piperazin-1-yl)ethyl)piperidin-4-yl)-1-oxoisoindolin-2-yl)piperidine-2,6-dione] | < 500 |
| O=C1CCC(N2Cc3cc(C4CCN(CCC5CCN(C(=O)[C@H]6CCC[C@@H](Nc7ncc(Cl)c(-c8cccc(-c9ccccc9)c8)n7)C6)CC5)CC4)ccc3C2=O)C(=O)N1 (relative stereo) [Compound 62, cis-3-(5-(1-(2-(1-(3-((4-([1,1′-biphenyl]-3-yl)-5-chloropyrimidin-2-yl)amino)cyclohexane-1-carbonyl)piperidin-4-yl)ethyl)piperidin-4-yl)-1-oxoisoindolin-2-yl)piperidine-2,6-dione] | < 500 |
| O=C1CCC(N2Cc3cc(C4CCN(CC5CCN(C(=O)[C@H]6CCC[C@@H](Nc7ncc(Cl)c(-c8cccc(-c9ccccc9)c8)n7)C6)CC5)CC4)ccc3C2=O)C(=O)N1 (relative stereo) [Compound 63, cis-3-(5-(1-((1-(3-((4-([1,1′-biphenyl]-3-yl)-5-chloropyrimidin-2-yl)amino)cyclohexane-1-carbonyl)piperidin-4-yl)methyl)piperidin-4-yl)-1-oxoisoindolin-2-yl)piperidine-2,6-dione] | < 500 |

The remaining lines, values ahead:

| DC50 [nM] | SMILES |
| --- | --- |
| < 500 | O=C1CCC(Nc2ccc(C3CCN(CC(=O)N4CCN(C(=O)[C@H]5CCC[C@@H](Nc6ncc(Cl)c(-c7cccc(-c8ccccc8)c7)n6)C5)CC4)CC3)cc2)C(=O)N1 (relative stereo) [Compound 57, cis-3-((4-(1-(2-(4-(3-((4-([1,1′-biphenyl]-3-yl)-5-chloropyrimidin-2-yl)amino)cyclohexane-1-carbonyl)piperazin-1-yl)-2-oxoethyl)piperidin-4-yl)phenyl)amino)piperidine-2,6-dione] |
| < 500 | Cn1c(=O)n(C2CCC(=O)NC2=O)c2ccc(C3CCN(C(=O)CN4CCN(C(=O)[C@H]5CCC[C@@H](Nc6ncc(Cl)c(-c7cccc(-c8ccccc8)c7)n6)C5)CC4)CC3)cc21 (relative stereo) [Compound 58, cis-3-(5-(1-(2-(4-(3-((4-([1,1′-biphenyl]-3-yl)-5-chloropyrimidin-2-yl)amino)cyclohexane-1-carbonyl)piperazin-1-yl)acetyl)piperidin-4-yl)-3-methyl-2-oxo-2,3-dihydro-1H-benzo[d]imidazol-1-yl)piperidine-2,6-dione] |
| < 500 | Cn1c(=O)n(C2CCC(=O)NC2=O)c2ccc(C3CCN(C(=O)CC4CCN(C(=O)[C@H]5CCC[C@@H](Nc6ncc(Cl)c(-c7cccc(-c8ccccc8)c7)n6)C5)CC4)CC3)cc21 (relative stereo) [Compound 59, cis-3-(5-(1-(2-(1-(3-((4-([1,1′-biphenyl]-3-yl)-5-chloropyrimidin-2-yl)amino)cyclohexane-1-carbonyl)piperidin-4-yl)acetyl)piperidin-4-yl)-3-methyl-2-oxo-2,3-dihydro-1H-benzo[d]imidazol-1-yl)piperidine-2,6-dione] |
